Patent publication US20230226066A1, “COMPOUNDS FOR THE TREATMENT OF VIRAL INFECTIONS” (MERCK PATENT GMBH, priority 2020, published 2023)

Experiments:
Format in all cases: cell-based
SARS-CoV2/ZG/297-20 = conditions: MOI 0.05; 120 hours observation; Compound 1 at 1-81 μM, Compound 2 at 9-81 μM; compared to uninfected and infected control cells; FIGS. 1 and 2
[1] = tested on: Dengue virus serotype 2 (DENV-2); experiment: Antiviral testing against Dengue virus serotype 2 in Vero cells (CPE inhibition assay, immunostaining); conditions: DENV2, Vero, read-out: half maximal effective concentration (EC50), viral replication
Protocol: (§1) The antiviral effect of Compounds is evaluated against Dengue virus serotype 2 (DENV-2) using cytopathic effect (CPE) inhibition assay. Cytotoxic effect was assessed in parallel.
(§2) Five-fold serial dilutions of Compound 2 were prepared at a starting concentration of 50 μM and added in triplicate to 1.00E+04 Vero cells seeded in conical 96-well plates one day prior and incubated at 37° C. and 5% CO2 for one-hour. During the incubation time, viruses were thawed and inoculum prepared in infection medium. Stock and inoculum were maintained in wet ice at all time. Virus was then added to the Compound 2 dilutions/cells (1:1) and plates were incubated at 37° C. and 5% CO2 for 3-5 days.
Cells were immunostained. Then, medium was removed, cells were washed with PBS, fixed with cold 80%/20% (v/v) ethanol/methanol and incubated at −20° C. for 20 minutes. After removal of fixative the plates were air-dried, washed and stained with specific Ab #1, washed and stained with Ab #2-HRP conjugated. Then, cells were washed, 3,3′,5,5′-tetramethylbenzidine (TMB) substrate was added followed by addition of stop solution. The supernatant was transferred to a clean plate and signal read at 450 nm.

[2] = Cytotoxic effect on Vero cells, assessed in parallel; conditions: African green monkey, FIG. 5, read-out: half maximal cytotoxic concentration (CC50), viability of Vero cells
Protocol: as §1, §2

Row | Structure (SMILES) | confluence of Calu-3 cells infected with SARS-CoV-2 (SARS-CoV2/ZG/297-20) | EC50 [1] | CC50 [2]
1 | Nc1nn2cc(F)cnc2c1C(=O)Nc1cncc(F)c1N1CCC(C(=O)N2CCN(C3COC3)CC2)CC1 [Compound 1, 2-Amino-6-fluoro-pyrazolo[1,5-a]pyrimidine-3-carboxylic acid [5′-fluoro-4-(4-oxetan-3-yl-piperazine-1-carbonyl)-3,4,5,6-tetrahydro-2H-[1,4′]bipyridinyl-3′-yl]-amide] | significant improvement of the confluence of the cells |  | 
2 | Cn1cncc1-c1c(F)cncc1NC(=O)c1c(N)nn2cc(F)cnc12 [Compound 2, 2-Amino-6-fluoro-N-[5-fluoro-4-(1-methyl-1H-imidazol-5-yl)pyridin-3-yl]pyrazolo [1,5-a]pyrimidine-3-carboxamide] | significant improvement of the confluence of the cells | 0.46 µM | 6.8 µM
